These results are taken from publication PMC9827040 (Blood Advances, 2022).

For assay [1], the system named is CCL3 and CCL4 secretion by TMD-8 cells. Briefly: CCL3 & CCL4 ELISA in anti-IgM stimulated TMD-8 cells. The format is cell-based, human. The following applies: 10 nM for 24 hours, 10 μg/mL anti-IgM 8 hours. (ELISA stands for enzyme-linked immunosorbent assay.)
A further assay concerns the target CRBN (Homo sapiens, UniProt Q96SW2). The assay can be described thus: CRBN-target-binding assay. The following applies: HTRF. A general note: TR-FRET usually uses a lanthanide donor and a delayed reading to cut background.
For assay [2], the system named is WT and mutant BTK (E41K, T474I, C481S, C481R, C481T, C481Y, C481F, L528W). Briefly: WT or mutant BTK transiently expressed in HEK293 cells, immunoblotting. The format is cell-based. The following applies: HEK293, 0.1, 1 and 10 μM, 24 hours. (Immunoblotting shows a protein as a band on a membrane.)
The next assay concerns TMD-8 BTK C481S cells. Briefly: Cell proliferation, C481S BTK-overexpressing TMD-8 cells. The assay is classed as cell-based, human.
Assay [3] concerns CRBN neosubstrates (Ikaros, Helios, Aiolos, GSPT1, CK1-a). Briefly: Immunoblotting of CRBN neosubstrates in hematological cell lines. The assay is classed as cell-based. As to conditions: 100 nM, 24 or 72 hours.

CRBN, sequence (Q96SW2 whole entry): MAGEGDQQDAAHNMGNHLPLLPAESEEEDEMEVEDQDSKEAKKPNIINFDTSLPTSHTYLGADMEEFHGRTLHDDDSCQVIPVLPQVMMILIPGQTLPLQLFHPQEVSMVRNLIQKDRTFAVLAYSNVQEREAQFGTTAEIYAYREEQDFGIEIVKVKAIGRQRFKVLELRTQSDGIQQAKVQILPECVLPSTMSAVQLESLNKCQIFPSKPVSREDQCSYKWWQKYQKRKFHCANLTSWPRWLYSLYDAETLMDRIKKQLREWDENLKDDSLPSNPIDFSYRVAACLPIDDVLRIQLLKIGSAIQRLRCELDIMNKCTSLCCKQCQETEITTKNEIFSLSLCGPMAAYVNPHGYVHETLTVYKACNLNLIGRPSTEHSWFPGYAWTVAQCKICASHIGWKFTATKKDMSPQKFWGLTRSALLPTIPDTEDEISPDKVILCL

Turning to `O=C(c1ccc(Oc2ccccc2)cc1Cl)c1c[nH]c2ncnc(N[C@@H]3CC[C@@H](CO)OC3)c12` [ARQ-531], in assay [1], the “CCL3 or CCL4 secretion” value was “little or no effect”. In addition, the “binding to CRBN” value at CRBN is “did not bind to CRBN”. Besides, the “BTK phosphorylation in C481S and E41K BTK mutants” value in assay [2] is recorded as “substantially attenuated”.

Take `Nc1ncnc2c1c(-c1ccc(Oc3ccccc3)cc1)nn2C1CCN(CCOCCOCC(=O)Nc2ccc3c(c2)C(=O)N(C2CCC(=O)NC2=O)C3=O)CC1` (centres unmarked) [MT-802]: in assay [1], the “CCL3 or CCL4 secretion” value was “little or no effect”. The “degradation of WT and mutant BTK” value in assay [2] was “can also degrade E41K, C481R, C481Y, C481T, and C481F BTK mutants”.

For `CC#CC(=O)N1CCC[C@H]1c1nc(-c2ccc(C(=O)Nc3ccccn3)cc2)c2c(N)nccn12` [acalabrutinib], in assay [1], the “CCL3 or CCL4 secretion” value is recorded as “significantly abrogated CCL3 or CCL4 secretion”.

For `C=CC(=O)N1CCC[C@@H](n2nc(-c3ccc(Oc4ccccc4)cc3)c3c(N)ncnc32)C1` [ibrutinib], the “CCL3 or CCL4 secretion” value in assay [1] is listed as “significantly abrogated CCL3 or CCL4 secretion”. In addition, the “inhibition of proliferation of C481S BTK-overexpressing TMD-8 cells” value with TMD-8 BTK C481S cells was “resistance”. Besides, the “binding to CRBN” value at CRBN is given as “did not bind to CRBN”.

As to `O=C1CCC(N2C(=O)c3ccccc3C2=O)C(=O)N1` (centres unmarked) [thalidomide], in assay [3], the “change in neosubstrates of U2932 and WSU-WM” value is “No significant change”; the “degradation of CRBN neosubstrates in any of the tested cell lines” value is on record as “did not lead to any significant degradation”.
